# Laboratory results as given in US9375438B2, “Inhibitors of NCCa-ATP channels for therapy” (University of Maryland, Baltimore, priority 2007, dated 2016).
# Columns and labels:
# [1] = tested on: rats with hemi-cervical spinal cord contusion (SCI); experiment: SCI model: extravasated blood in cord (tissue blood); assay type: in vivo, rat; settings: for PHN: following SCI (summary)
# Protocol: (§1) SCI injury model. This study was performed in accordance with the guidelines of the Institutional Animal Care and Use Committee. Adult female Long-Evans rats (275-350 gm) were anesthetized (Ketamine, 60 mg/kg plus Xylazine, 7.5 mg/kg, i.p.). The dura at C4-5 was exposed via a left hemilaminectomy. A hemi-cervical spinal cord contusion was created using a blunt force impactor (1.3-mm impactor head driven by a 10 gm weight dropped vertically 25 mm) (Soblosky et al., 2001; Gensel et al., 2006). After SCI, animals were given 10 ml of glucose-free normal saline s.q. Rectal temperature was maintained at ˜37° C. using a servo-controlled warming blanket.
# (§2) For in vivo gene suppression of SUR1, we used oligodeoxynucleotides that were phosphorothioated at 4 distal bonds to protect against endogenous nucleases (35).
# Tissue blood. Rats were sacrificed at various times after SCI (n=5-11 rats/group), were perfused with heparinized saline to remove intravascular blood, and 5-mm segments of cord encompassing the lesion were homogenized and processed as described (Choudhri et al., 1997).
# [2] = tested on: rats with hemi-cervical spinal cord contusion (SCI); experiment: SCI model: lesion size; assay type: in vivo, rat; settings: following SCI; compared to controls (summary)
# Protocol: as §1, with “blanket. Blood gases and serum glucose 10-15 min post-SCI were: pO2, 95±6 mm Hg; pCO2, 46±3 mm Hg; pH, 7.33±0.01; glucose 258±17 mg/dl in controls and pO2, 96±7 mm Hg; pCO2, 45±2 mm Hg; pH, 7.37±0.01; glucose 242±14 mg/dl in glibenclamide-treated animals.” for “blanket.”
# Drug delivery. […] During the course of the project, slightly different formulations of drug were used, with the best results obtained using stock solutions made by placing 50 mg (or 25 mg) of drug into 10 ml DMSO, and infusion solutions made by placing 400 μl (or 800 μl) stock into 4.6 ml (or 4.2 ml) unbuffered saline (0.9% NaCl) and adjusting the pH to ˜8.5 using 0.1 N NaOH.
# Lesion size. At 7 d post-SCI, cords were paraffin sectioned and stained with H&E. Lesion volumes were calculated from lesion areas measured on serial sections every 250 μm.
# (§3) Immunohistochemistry. Cryosections were immunolabeled (Chen et al., 2003; Simard et al., 2006) using primary antibodies directed against SUR1 (Santa Cruz, C-16; 1:200; 1 h at RT, 48 h at 4° C.), SUR2 (Santa Cruz, H-80; 1:200; 1 h at RT, 48 h at 4° C.), GFAP (Sigma, C-9205; 1:500), and vimentin (Sigma, monoclonal CY3 conjugated; 1:100). Quantitative immunofluorescence was performed as described (Gerzanich et al., 2003).
# [3] = tested on: rats with hemi-cervical spinal cord contusion (SCI); experiment: SCI model: neurobehavioral assessment (inclined plane, paw placement, rearing); assay type: in vivo, rat
# Protocol: as §1, §2
# Neurobehavioral Assessment. All measurements were performed by blinded evaluators. Performance on the inclined plane was evaluated as described (Rivlin and Tator, 1977). To assess paw placement and vertical exploration (rearing) (Nikulina et al., 2004) animals were videotaped while in a translucent cylinder (19×20 cm). Rearing was quantified as the number of seconds spent with both front paws elevated above shoulder-height during a 3-min period of observation.
# [4] = target: native and recombinant β-cell KATP channels (Homo sapiens, UniProt Q09428); settings: read-out: IC50, block of native and recombinant β-cell KATP channels; cited from earlier work
# native and recombinant β-cell KATP channels, sequence (Q09428 whole entry): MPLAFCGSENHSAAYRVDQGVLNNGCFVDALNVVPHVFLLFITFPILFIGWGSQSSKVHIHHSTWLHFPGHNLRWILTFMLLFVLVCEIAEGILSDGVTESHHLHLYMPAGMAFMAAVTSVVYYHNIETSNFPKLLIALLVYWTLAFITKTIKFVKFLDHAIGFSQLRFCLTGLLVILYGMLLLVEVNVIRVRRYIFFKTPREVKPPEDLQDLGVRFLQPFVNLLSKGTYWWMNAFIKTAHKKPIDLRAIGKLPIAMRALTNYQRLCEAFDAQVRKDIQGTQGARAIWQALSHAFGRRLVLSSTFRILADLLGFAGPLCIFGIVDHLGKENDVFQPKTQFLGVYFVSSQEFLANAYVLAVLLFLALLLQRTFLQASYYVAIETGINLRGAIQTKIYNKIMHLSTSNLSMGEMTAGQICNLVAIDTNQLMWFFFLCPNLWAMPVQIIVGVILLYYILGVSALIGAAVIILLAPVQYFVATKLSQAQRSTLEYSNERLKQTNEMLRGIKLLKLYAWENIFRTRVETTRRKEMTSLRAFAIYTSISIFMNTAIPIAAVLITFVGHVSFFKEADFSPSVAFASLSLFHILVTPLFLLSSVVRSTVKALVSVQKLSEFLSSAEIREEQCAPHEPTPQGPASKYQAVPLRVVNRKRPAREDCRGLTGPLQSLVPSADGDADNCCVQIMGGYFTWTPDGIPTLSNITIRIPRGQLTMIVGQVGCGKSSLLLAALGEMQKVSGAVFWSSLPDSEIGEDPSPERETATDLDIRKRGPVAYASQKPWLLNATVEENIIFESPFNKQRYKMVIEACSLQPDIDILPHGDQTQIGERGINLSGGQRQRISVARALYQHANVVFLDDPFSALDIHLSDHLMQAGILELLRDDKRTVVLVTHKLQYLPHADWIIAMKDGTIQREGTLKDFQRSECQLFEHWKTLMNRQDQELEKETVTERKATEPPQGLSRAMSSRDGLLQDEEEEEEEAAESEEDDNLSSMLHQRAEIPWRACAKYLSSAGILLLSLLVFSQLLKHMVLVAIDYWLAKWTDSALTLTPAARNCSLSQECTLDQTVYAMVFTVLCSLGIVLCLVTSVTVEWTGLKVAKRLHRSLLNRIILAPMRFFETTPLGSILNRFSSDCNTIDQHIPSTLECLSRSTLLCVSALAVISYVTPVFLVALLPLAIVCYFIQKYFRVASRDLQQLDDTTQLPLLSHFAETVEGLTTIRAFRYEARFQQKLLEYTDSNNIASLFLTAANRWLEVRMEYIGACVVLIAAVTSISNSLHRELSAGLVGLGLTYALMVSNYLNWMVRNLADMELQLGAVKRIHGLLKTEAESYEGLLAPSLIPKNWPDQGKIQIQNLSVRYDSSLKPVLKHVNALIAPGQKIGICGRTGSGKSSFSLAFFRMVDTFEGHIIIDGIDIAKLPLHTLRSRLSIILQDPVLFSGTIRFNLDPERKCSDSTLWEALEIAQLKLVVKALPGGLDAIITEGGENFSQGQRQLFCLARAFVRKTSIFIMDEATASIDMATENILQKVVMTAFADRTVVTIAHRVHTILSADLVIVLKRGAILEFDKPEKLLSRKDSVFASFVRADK
# native and recombinant β-cell KATP channels, sequence (Q14654 whole entry partner): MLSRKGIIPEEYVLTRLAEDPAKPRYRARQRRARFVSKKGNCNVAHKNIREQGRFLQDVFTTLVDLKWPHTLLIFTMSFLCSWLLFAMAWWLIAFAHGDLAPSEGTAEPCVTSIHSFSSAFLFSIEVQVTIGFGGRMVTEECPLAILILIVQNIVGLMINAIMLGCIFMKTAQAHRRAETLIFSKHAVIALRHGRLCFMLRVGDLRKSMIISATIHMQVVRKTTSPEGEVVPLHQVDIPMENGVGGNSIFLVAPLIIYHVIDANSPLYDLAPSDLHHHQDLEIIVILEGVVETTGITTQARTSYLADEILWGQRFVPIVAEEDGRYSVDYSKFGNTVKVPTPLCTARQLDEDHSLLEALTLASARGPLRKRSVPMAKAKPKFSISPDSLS
# [5] = tested on: SUR1; experiment: SUR1 knock-down in gliotic capsule (gelatin sponge implant), Western blot and astrocyte patch clamp; assay type: in vivo, rat; settings: vs Scr-ODN
# Protocol: To validate the antisense strategy, it was first implemented in the model that was originally used for the discovery of the NCCa-ATP channel, wherein a gelatin sponge is implanted into the parietal lobe to stimulate formation of a gliotic capsule (Chen and Simard, 2001). Here, animals were also fitted with mini-osmotic pumps that delivered oligodeoxynucleotides (ODN), either antisense (AS) or scrambled (Scr), continuously for 7 d into the injury site.
# SUR1 knock-down in astrocytes was performed in triplicates by implanting rats with gelatin sponges in the parietal lobe to induce formation of a gliotic capsule containing reactive astrocytes that express the SUR1-regulated NCCa-ATP channel (Chen and Simard, 2001; Chen et al., 2003). At the same time, they were implanted with mini-osmotic pumps (Alzet, model 2002; 14-day pump) placed in the dorsal thoracolumbar region that contained ODN (711 μg/ml delivered @ 0.5 μl/h, yielding 1500 picomoles/day), with the delivery catheter placed directly into the site of the gelatin sponge implant in the brain. Animals were infused with Src-ODN or AS-ODN, as above but not phosphorothioated. After 10-14 days, the gelatin sponge plus encapsulating gliotic tissues were harvested and processed either for Western immunoblots or to obtain fresh reactive astrocytes for patch clamp electrophysiology. […]
# [6] = tested on: SUR1; experiment: SCI model: SUR1 immunolabeling of cord after i.v. ODN; assay type: in vivo, rat
# Protocol: as §1, with “blanket. Blood gases and serum glucose 10-15 min post-SCI were: pO2, 95±6 mm Hg; pCO2, 46±3 mm Hg; pH, 7.33±0.01; glucose 258±17 mg/dl in controls and pO2, 96±7 mm Hg; pCO2, 45±2 mm Hg; pH, 7.37±0.01; glucose 242±14 mg/dl in glibenclamide-treated animals.” for “blanket.”
# For in vivo gene suppression of SUR1, we used oligodeoxynucleotides that were phosphorothioated at 4 distal bonds to protect against endogenous nucleases (35). Within a few min of SCI, mini-osmotic pumps (Alzet 2002, 0.5 μl/h; Durect Corporation) with jugular vein catheters were implanted that delivered either scrambled sequence ODN (Scr-ODN) (5′-[…]-3′; SEQ ID NO:1) or antisense ODN (AS-ODN) (5′-[…]-3′; SEQ ID NO:2) (Yokoshiki et al., 1999) in PBS at a rate of 1 mg/rat/24 h.
# as §3
# [7] = target: SUR1-regulated NCCa-ATP channels (Rattus norvegicus, UniProt Q09429); settings: read-out: EC50, block of NCCa-ATP channel; cited from earlier work
# [8] = target: T1, SUR1-regulated NCCa-ATP channel in human aortic endothelial cells (Homo sapiens, UniProt Q09428); experiment: Perforated-patch whole-cell recording of endothelial cells, channel activation by diazoxide; assay type: cell-based
# T1 construct: host or cells: human aortic endothelial cells cultured under hypoxia
# T1 sequence (Q09428 whole entry): as the sequence (Q09428 whole entry) above
# T1 sequence (Q8TD43 whole entry partner): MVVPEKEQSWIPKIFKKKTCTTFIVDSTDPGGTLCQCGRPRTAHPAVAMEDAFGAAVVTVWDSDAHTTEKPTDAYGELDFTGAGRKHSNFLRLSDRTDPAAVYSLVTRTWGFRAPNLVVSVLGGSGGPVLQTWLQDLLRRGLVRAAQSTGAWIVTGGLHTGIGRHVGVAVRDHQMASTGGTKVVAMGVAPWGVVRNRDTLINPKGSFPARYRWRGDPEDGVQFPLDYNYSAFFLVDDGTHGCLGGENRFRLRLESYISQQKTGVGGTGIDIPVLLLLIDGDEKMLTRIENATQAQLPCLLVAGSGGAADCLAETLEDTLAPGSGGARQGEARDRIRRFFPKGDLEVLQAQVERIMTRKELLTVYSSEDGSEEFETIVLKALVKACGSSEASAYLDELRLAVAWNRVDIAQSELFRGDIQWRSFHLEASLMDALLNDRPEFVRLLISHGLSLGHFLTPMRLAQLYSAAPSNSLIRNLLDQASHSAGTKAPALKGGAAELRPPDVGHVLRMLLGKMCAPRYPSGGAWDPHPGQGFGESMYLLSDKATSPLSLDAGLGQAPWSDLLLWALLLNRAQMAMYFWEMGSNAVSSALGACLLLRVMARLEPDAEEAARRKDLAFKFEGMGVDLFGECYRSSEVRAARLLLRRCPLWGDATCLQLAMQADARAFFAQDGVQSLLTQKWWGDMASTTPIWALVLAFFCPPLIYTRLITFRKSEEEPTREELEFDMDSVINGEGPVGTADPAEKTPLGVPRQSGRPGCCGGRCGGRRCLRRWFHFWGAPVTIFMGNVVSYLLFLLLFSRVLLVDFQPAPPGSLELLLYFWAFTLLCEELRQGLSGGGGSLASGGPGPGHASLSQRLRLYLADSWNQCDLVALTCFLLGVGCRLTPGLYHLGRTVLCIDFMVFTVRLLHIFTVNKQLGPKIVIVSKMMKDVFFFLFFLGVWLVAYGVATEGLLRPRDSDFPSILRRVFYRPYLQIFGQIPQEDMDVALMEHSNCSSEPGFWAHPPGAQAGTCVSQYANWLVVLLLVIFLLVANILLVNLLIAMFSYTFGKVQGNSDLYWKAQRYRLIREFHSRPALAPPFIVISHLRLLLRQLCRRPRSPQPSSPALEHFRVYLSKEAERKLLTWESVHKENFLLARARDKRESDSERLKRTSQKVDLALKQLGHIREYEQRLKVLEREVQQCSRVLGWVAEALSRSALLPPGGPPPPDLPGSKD
# Protocol: Patch clamp of endothelial cells was performed using a nystatin-perforated patch technique, to maintain the metabolic integrity of the cells. The identity of the activated channel can be assessed by measurement of the “reversal potential”, the potential at which an ion channel current reverses from inward to outward. With physiologically relevant concentrations of ions intracellularly and extracellularly (high potassium inside, high sodium outside), the reversal potential can unambiguously distinguish between a K^+ channel current such as KATP, which reverses negative to −50 mV and a non-selective cation channel current such as NCCa-ATP, which reverses near 0 mV.
# Cell culture. Endothelial cell cultures from human brain microvessels, human aorta (ScienCell Research Laboratories), and murine brain microvessels (bEnd.3; ATCC), were grown at low density using media and supplements recommended by suppliers.
# [9] = repaglinide 200 ng/h s.q., n=3-8/group
# [10] = 1 d post-SCI, ODN i.v., vs Scr-ODN
molecule,measurement,setting,value
CCOc1cc(CC(=O)N[C@@H](CC(C)C)c2ccccc2N2CCCCC2)ccc1C(=O)O [repaglinide],blood in cord homogenates,"[1]; 1 d post-SCI, repaglinide 200 ng/h s.q., 5-8 rats/group",1.2 ± 0.1 µL
same,PHN,[1],significantly reduced
same,reduction in lesion volume,[2],3 fold
same,vertical exploration,"[3]; repaglinide 200 ng/h s.q., 5-6 rats/group",27 ± 6 s
same,"inclined plane, head down",[3]; [9],47±3 degrees
same,"inclined plane, head up",[3]; [9],62±2 degrees
same,IC50,[4],0.9 to 7 nM
"5′-GGCCGAGTGGTTCTCGGT-3′ (DNA, backbone and methylation of C not given here; phosphorothioate at 4 distal bonds) [AS-ODN]",blood in cord homogenates (effect),[1]; [10],reduced
same,PHN,[1],significantly reduced
same,reduction in lesion volume,[2],3 fold
same,performance in vertical exploration,[3]; [10],significantly better performance
same,performance on the inclined plane,[3]; [10],significantly better performance
same,SUR1 protein in gliotic capsule (Western blot),[5]; ODN infused into injury site,significant reduction
same,astrocyte depolarization on ATP depletion by Na azide,[5]; astrocytes from gliotic capsule,depolarized only slightly or not at all
same,SUR1 immunolabeling of cord,"[6]; 6 h post-SCI, ODN i.v. 1 mg/rat/24 h, vs controls",significantly less immunolabeling
same,normal expression of SUR1 in dorsal horn cells,"[6]; post-SCI, ODN i.v.",did not affect
same,necrotic void beneath impact site,"[6]; post-SCI, ODN i.v., vs Scr-ODN",no necrotic void was evident
Nc1ncnc2c1ncn2[C@@H]1O[C@H](COP(=O)(O)OP(=O)(O)OP(=O)(O)O)[C@@H](O)[C@H]1O [ATP],EC50,[7],790 nM
CC1=NS(=O)(=O)c2cc(Cl)ccc2N1 [diazoxide],current activated by diazoxide,[8]; endothelial cells cultured under hypoxic conditions,activated an ohmic current that reversed near 0 mV
same,current activated by diazoxide,[8]; endothelial cells cultured under normoxic conditions,"either had no effect or, in half of the cells, activated an outwardly rectifying current"
